Data set [1] is described as follows: cross-over study of oral absorption with concomitant magnesium hydroxide. The format is in vivo, test persons. As for the experimental part: In persons having a poor absorption of fenamates the increase of peak concentrations of e.g. tolfenamic acid can be up to 10-fold through the action of magnesium hydroxide (fig. 4).
Since medicines are generally taken with water, the administration of pharmaceutical tablets in the above tests was immediately followed by 150 ml of water with magnesium hydroxide blended therein.

For data set [2] the following is noted: Pentikainen et al., European Journal of Clinical Pharmacology 1984; cited from earlier work.

As for `Cc1c(Cl)cccc1Nc1ccccc1C(=O)O` [tolfenamic acid], the “increase of peak concentrations through the action of magnesium hydroxide” value in data set [1] (human, in vivo) is “up to 10 fold”. Moreover, the “absorption from alimentary canal” value in data set [2] is recorded as “relatively slow”. `CC(C)Cc1ccc(C(C)C(=O)O)cc1` (stereo not drawn) [ibuprofen]: the rate of absorption result in data set [1] (ibuprofen 400 mg (tabl. BURANA), concomitant ingestion of Mg-hydroxide) was “accelerated significantly”.

(Values after patent publication EP0414688B1, “PROCESS FOR REGULATING THE ABSORPTION RATE OF DRUGS AND A PHARMACEUTICAL FORMULATION” (NEUVONEN, Pertti J., priority 1988, dated 1989).)
